Key:
[1] = molecular target: T1, MurX (Mycobacterium tuberculosis, UniProt P9WMW7); format: biochemical; details: for MurX inhibition (%) 0.1 μM: inhibitor 0.1 μM; for MurX inhibition (%) 0.1 μM / MurX inhibition (%) 1 μM / MurX inhibition (%) 10 μM / MurX inhibition (%) 100 μM: 2 75 μM, neryl phosphate 6, P-60, 26 °C, 3h; for MurX inhibition (%) 1 μM: inhibitor 1 μM; for MurX inhibition (%) 10 μM: inhibitor 10 μM; for MurX inhibition (%) 100 μM: inhibitor 100 μM; for IC50: neryl phosphate assay, obtained three times, ± standard error of the mean
T1 sequence (P9WMW7 whole entry): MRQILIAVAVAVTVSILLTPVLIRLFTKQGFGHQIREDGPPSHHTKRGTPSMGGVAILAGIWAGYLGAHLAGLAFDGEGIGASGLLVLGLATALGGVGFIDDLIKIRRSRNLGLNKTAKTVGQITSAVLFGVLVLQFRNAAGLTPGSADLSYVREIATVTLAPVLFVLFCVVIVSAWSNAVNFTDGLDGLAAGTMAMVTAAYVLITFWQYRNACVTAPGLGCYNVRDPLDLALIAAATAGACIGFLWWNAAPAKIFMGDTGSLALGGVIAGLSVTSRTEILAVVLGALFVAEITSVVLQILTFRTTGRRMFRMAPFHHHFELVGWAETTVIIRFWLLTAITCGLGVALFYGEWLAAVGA

[2] = tested on: MraY-MurG; details: no reference given; cited from earlier work
[3] = molecular target: T1, MurX
[4] = Water-solubility; format: physicochemical

## CO[C@H]1[C@@H](O)[C@H](n2ccc(=O)[nH]c2=O)O[C@@H]1[C@@H](O[C@H]1OC(C(=O)N[C@H]2CCCCNC2=O)=C[C@H](O)[C@@H]1O)C(N)=O [Capuramycin (7), Capuramycin]
[1]
  MurX inhibition (%) 0.1 μM: 36.6%
  MurX inhibition (%) 1 μM: 88.4%
  MurX inhibition (%) 10 μM: 100%
  MurX inhibition (%) 100 μM: 100%

## CN[C@H](CC(C)C)C(=O)N[C@H]1C(=O)N[C@@H](CC(N)=O)C(=O)N[C@H]2C(=O)N[C@H]3C(=O)N[C@H](C(=O)N[C@H](C(=O)O)c4cc(O)cc(O)c4-c4cc3ccc4O)[C@H](O)c3ccc(c(Cl)c3)Oc3cc2cc(c3O[C@@H]2O[C@H](CO)[C@@H](O)[C@H](O)[C@H]2O[C@H]2C[C@](C)(N)[C@H](O)[C@H](C)O2)Oc2ccc(cc2Cl)[C@H]1O [Vancomycin]
[1]; even at 100 μM concentrations
  MurX inhibitory activity: did not inhibit MurX
[1]
  MurX inhibition (%) 0.1 μM: 0%
  MurX inhibition (%) 1 μM: 0%
  MurX inhibition (%) 10 μM: 0%
  MurX inhibition (%) 100 μM: 0%
[2]
  activity in MraY-MurG coupled assays: good activity

## CC(C)=CCC/C(C)=C\COP(=O)(O)O [compound 6, neryl phosphate]
[1]
  IC50: 0.152 µM

## N-glycolyl Park’s nucleotide-N^ε-dansylthiourea [compound 1]
[3]
  Km: 18.1 µM

## Park’s nucleotide-N^ε-dansylthiourea [compound 2]
[3]
  Km: 17.9 µM
  Vmax for neryl-lipid I synthesis by MurX: 0.00269 µM/s

## Tunicamycin [Tunicamycin (9)]
[1]
  MurX inhibition (%) 0.1 μM: 9%
  MurX inhibition (%) 1 μM: 42%
  MurX inhibition (%) 10 μM: 72%
  MurX inhibition (%) 100 μM: 72%
  IC50: 2.73 ± 0.138 µM

## neryl-lipid I-N^ε-dansylthiourea [compound 5]
[4]
  water-solubility: > 0.05 mg/mL

Source: publication PMC4296562 (Analytical biochemistry, 2014)
